According to patent US12121510B2 (Cedars-Sinai Medical Center, priority 2016, dated 2024):
Where two headings read alike, the source gives them in different places.

Tests used:
[1] = test system: MIAPaCa II; experiment: Cancer cell growth IC50 / sensitization (crystal violet); assay type: cell-based; details: Example 15
Excerpt: (§1) Exemplary Embodiments are generally performed as follows, unless otherwise noted. Simvastatin is purchased from Ark Pharm, Inc. (Arlington Heights, IL). Cisplatin (CIS) is purchased from MedKoo Biosciences, Inc. (Chapel Hill, NC). Dihydroartemisinin is purchased from TCI America (Portland, OR). All other chemicals and reagents are purchased from standard sources such as Sigma-Aldrich and/or VWR and are of highest quality available. Puromycin dihydrochloride was purchased from Alfa Aesar (Tewksbury, MA). Deionized water ([…]) used for making solutions is obtained from Milli-Q Direct Ultrapure Water System from Millipore (Billerica, MA, USA). All intermediates are characterized by 1H NMR and mass analysis and the purity of compounds are analyzed by HPLC. 1H NMR data are collected on Bruker 400 MHz spectrometers using standard parameters; chemical shifts are reported in ppm (δ) in reference to residual non-deuterated solvent. ESI mass spectroscopy analysis is performed using a Thermo Fisher LTQ Orbitrap Elite system. IC50 is the half maximal inhibitory concentration and determined is determined by crystal violet assay unless otherwise noted.
(§2) The crystal violet assay is performed as follows, unless otherwise noted. Cell lines are supplemented with RPMI 1640 medium, 10% fetal bovine serum, 1% PenStrep, and placed in a humidified atmosphere containing 5% CO2 at 37° C. 5,000 cells/well renal cancer cells and 10,000 cells/well lymphoma cells are seeded in 96 well plates in 100 microliter medium/per well for 24 h. […] Renal cancer cells are fixed with 3.7% paraformaldehyde for 15 minutes and are stained with Crystal violet solution (0.5% in 25% methanol) for 30 minutes. After rinsing with water cell layers are dried and decolorized with Sorenson citrate with shaking for 20 minutes. Light absorption of the extracted supernatant is read at 595 nm. Lymphoma cell growth was evaluated using MTT and cells are incubated for 4 hours. 100 microliters of isopropanol is added, and the extracted supernatant fraction is read at absorption maximum of 595 nm. […]

[2] = test system: A549; experiment: Cell proliferation IC50, Crystal Violet assay; assay type: cell-based, human; details: 72 h
[3] = test system: renal cancer and B-cell lymphoma cell lines; experiment: Growth IC50 in renal cancer and B-cell lymphoma panel; assay type: cell-based, human; details: all cancer cell lines of Example 16; 72 h; read-out: IC50 across renal cancer and B-cell lymphoma cell lines
Description: (§3) Cell lines are cultured as follows. […] 5,000 cells/well renal cancer cells and 10,000 cells/well lymphoma cells are seeded in 96 well plates in 100 microliter medium/per well for 24 h. […] Renal cancer cells are fixed with 3.7% paraformaldehyde for 15 minutes and are stained with Crystal violet solution (0.5% in 25% methanol) for 30 minutes. After rinsing with water cell layers are dried and decolorized with Sorenson citrate with shaking for 20 minutes. Light absorption of the extracted supernatant is read at 595 nm. Lymphoma cell growth is evaluated using MTT and cells are incubated for 4 hours. 100 microliters of isopropanol is added, and the extracted supernatant fraction is read at absorption maximum of 595 nm.

[4] = test system: 22Rv1; experiment: Cancer cell growth IC50 (crystal violet); assay type: cell-based, human; details: Example 15
Excerpt: as §1, §2

[5] = test system: C4-2; experiment: Cancer cell growth IC50 (crystal violet); assay type: cell-based; details: Example 15; C4-2
Excerpt: as §1
(§4) The crystal violet assay is performed as follows, unless otherwise noted. Cell lines are supplemented with RPMI 1640 medium, 10% fetal bovine serum, 1% PenStrep, and placed in a humidified atmosphere containing 5% CO2 at 37° C. 5,000 cells/well renal cancer cells and 10,000 cells/well lymphoma cells are seeded in 96 well plates in 100 microliter medium/per well for 24 h. […] Renal cancer cells are fixed with 3.7% paraformaldehyde for 15 minutes and are stained with Crystal violet solution (0.5% in 25% methanol) for 30 minutes. After rinsing with water cell layers are dried and decolorized with Sorenson citrate with shaking for 20 minutes. Light absorption of the extracted supernatant is read at 595 nm. Lymphoma cell growth was evaluated using MTT and cells are incubated for 4 hours. 100 microliters of isopropanol is added, and the extracted supernatant fraction is read at absorption maximum of 595 nm.
(§5) Standard cell culture conditions typically are RPMI 1640 medium, 10% fetal bovine serum, 1% PenStrep, and are performed in a humidified atmosphere containing 5% CO2 at 37° C. Generally, 5,000 cells/well-10,000 cells/well are seeded in 96 well plates in 100 microliter medium/per well for 24 h, or as described in Example 16, unless otherwise noted. Certain cells require specialized media, growth factors, antibiotics, or culture condition adjustments, as will be apparent to a person of ordinary skill in the art.

[6] = test system: PC3; experiment: Cancer cell growth IC50 (crystal violet); assay type: cell-based; details: Example 15
Excerpt: as §1, §4, §5

[7] = test system: U87; experiment: Cancer cell growth IC50 (crystal violet); assay type: cell-based; details: Example 15
Excerpt: as §1, §4, §5

[8] = test system: HepG2; experiment: Cancer cell growth IC50 (crystal violet); assay type: cell-based; details: Example 15
Excerpt: as §1, §4, §5

[9] = test system: ARCaP-M; experiment: Cancer cell growth IC50 (crystal violet); assay type: cell-based; details: Example 15
Excerpt: as §1, §4, §5

[10] = test system: MCF-7; experiment: Cancer cell growth IC50 (crystal violet); assay type: cell-based; details: Example 15
Excerpt: as §1, §4, §5

[11] = test system: LNCaP; experiment: Cancer cell growth IC50 (crystal violet); assay type: cell-based; details: Example 15
Excerpt: as §1, §4, §5

[12] = test system: H358; experiment: Cancer cell growth IC50 (crystal violet); assay type: cell-based; details: Example 15
Excerpt: as §1, §4, §5

[13] = test system: C4-2B; experiment: Cancer cell growth IC50 (crystal violet); assay type: cell-based; details: Example 15
Excerpt: as §1, §4, §5

[14] = test system: ARCaP-E; experiment: Cancer cell growth IC50 (crystal violet); assay type: cell-based; details: Example 15
Excerpt: as §1, §4, §5

[15] = test system: PC3M; experiment: Cancer cell growth IC50 (crystal violet); assay type: cell-based; details: Example 15
Excerpt: as §1, §4, §5

[16] = test system: FUOV-1; experiment: Cancer cell growth IC50 (crystal violet); assay type: cell-based; details: Example 15
Excerpt: as §1, §4, §5

[17] = test system: CAOV-3; experiment: Cancer cell growth IC50 (crystal violet); assay type: cell-based; details: Example 15
Excerpt: as §1, §4, §5

[18] = test system: Namalwa; experiment: Lymphoma cell growth IC50 (MTT); assay type: cell-based, human
Excerpt: as §1, §4, §5, §3

[19] = test system: Daudi; experiment: Lymphoma cell growth IC50 (MTT); assay type: cell-based, human
Excerpt: as §1, §4, §5, §3

[20] = test system: Ramos; experiment: Lymphoma cell growth IC50 (MTT); assay type: cell-based, human
Excerpt: as §1, §4, §5, §3

[21] = test system: Raji; experiment: Lymphoma cell growth IC50 (MTT); assay type: cell-based, human
Excerpt: as §1, §4, §5, §3

[22] = test system: CA-46; experiment: Lymphoma cell growth IC50 (MTT); assay type: cell-based, human
Excerpt: as §1, §4, §5, §3

[23] = test system: Namalwa xenograft tumors; experiment: Burkitt lymphoma xenograft tumor growth; assay type: in vivo; details: Example 5; NCr Nu/Nu (10 μM) and NOD-SCID (5 μM) mice; 2 times a week; versus CIS or vehicle, p<0.05
Description: Representative results are illustrated in FIG. 5. DZ-CIS is administered to tumors as follows. 15 mice each (NCr Nu/Nu, right panel of FIG. 5, and NOD-SCID, left panel) are injected with Human Burkitt lymphoma cell line, Namalwa cells (10^3), producing 4 xenograft tumors per mouse.

[24] = 72 hours, read-out: Half maximal inhibitory concentration (IC50)

N.N.[Cl][Pt][Cl] [CIS, cis-diamminedichloridoplatinum (II)]
IC50 [1]: > 64 µM | IC50 ([2]; A549 parental, single agent, mean ± SEM, read-out: IC50): 26 ± 1.2 µM | IC50 ([2]; read-out: IC50 of CIS, Mean, A549, CIS alone): 26 µM | IC50 [3]: > 64 µM | IC50 [4]: > 64 µM | IC50 [5]: > 64 µM | IC50 [6]: 48.7 µM | IC50 [7]: > 64 µM | IC50 [8]: > 64 µM | IC50 [9]: > 64 µM | IC50 [10]: 39.5 µM | IC50 [11]: > 64 µM | IC50 [12]: > 64 µM | IC50 [13]: > 64 µM | IC50 [14]: > 64 µM | IC50 [15]: > 64 µM | IC50 [16]: 27.5 µM | IC50 [17]: 13.4 µM | IC50 [18, 24]: > 64 µM | IC50 ([18]; Example 15, read-out: IC50): > 64 µM | IC50 [19, 24]: > 64 µM | IC50 ([19]; Example 15, read-out: IC50): > 64 µM | IC50 [20, 24]: > 64 µM | IC50 ([20]; Example 15, read-out: IC50): > 64 µM | IC50 [21, 24]: > 64 µM | IC50 ([21]; Example 15, read-out: IC50): > 64 µM | IC50 ([22]; CA-46, 72 hours, read-out: Half maximal inhibitory concentration (IC50)): > 64 µM | IC50 ([22]; Example 15, CA46, read-out: IC50): > 64 µM | Tumor volume, Namalwa xenograft [23]: not CIS alone
